Literature values, collected in patent US20120142645A1, “NEUROACTIVE STEROID COMPOSITIONS AND METHODS OF USE FOR LOWERING CHOLESTEROL” (priority 2009, published 2012).

Tested on: acute moderate to severe traumatic brain injury
Settings: intravenous for three days; Wright et al., 2007; cited from earlier work

CC(=O)[C@H]1CC[C@H]2[C@@H]3CCC4=CC(=O)CC[C@]4(C)[C@H]3CC[C@]12C [progesterone]
Reduction of 30-day mortality rates: over 50%
